# Results taken from article PMC4793209 (2016).
# Legend:
# Assay in all cases: in-line probing
# [1] = test system: 108 yjdF RNA (WT, B. subtilis) (RNA, riboswitch) GGUAUAUGGUAAAGAAUGAAAAAACACGAUUCGGUUGGUAGUCCGGAUGCAUGAUUGAGAAUGUCAGUAACCUUCCCCUCCUCGGGAUGUCCAUCAUUCUUUAAUAUCU; settings: 100 mM KCl, 20 mM MgCl2, 50 mM Tris-HCl pH 8.3, 25 °C
# [2] = test system: 107 yjdF RNA (B. endophyticus) (RNA, riboswitch) GGUAUAUGAAAUGAAAAAACACAAUUCGGUUGGUAGUCCGGAUGCAUCAUAAUAAAUGAAUGUCAGUAGCCUUCCCCUCCUCGGGAUGUCCAUCAUUUCAUAGUAUUUU; settings: 100 mM KCl, 20 mM MgCl2; 50 mM Tris-HCl pH 8.3, 25 °C
# [3] = test system: 108 yjdF M3 (RNA, riboswitch) GGUAUAUGGUAAAGAAUGAAAAAACACGAUUCGGUUGGUCGUCCGGAUGCAUGAUUGAGAAUGUCAGUAACCUUCCCCUCCUCGGGAUGUCCAUCAUUCUUUAAUAUCU; settings: 100 mM KCl, 20 mM MgCl2; 50 mM Tris-HCl pH 8.3, 25 °C
# [4] = test system: 108 yjdF M1 (RNA, riboswitch) GGUAUAUGGUAAACUAUGAAAAAACACGAUUCGGUUGGUAGUCCGGAUGCAUGAUUGAGAAUGUCAGUAACCUUCCCCUCCUCGGGAUGUCCAUCAUUCUUUAAUAUCU; settings: 100 mM KCl, 20 mM MgCl2; 50 mM Tris-HCl pH 8.3, 25 °C; affinity reduced against WT
# [5] = test system: 108 yjdF M2 (RNA, riboswitch) GGUAUAUGGUAAACUAUGAAAAAACACGAUUCGGUUGGUAGUCCGGAUGCAUGAUUGAGAAUGUCAGUAACCUUCCCCUCCUCGGGAUGUCCAUCAUAGUUUAAUAUCU; settings: 100 mM KCl, 20 mM MgCl2; 50 mM Tris-HCl pH 8.3, 25 °C; near WT affinity
# [6] = 36-48 h, RNA <5 nM, apparent, 10 µM or poorer
# [7] = apparent, unit in unseen head of Table S1
smiles,measurement,setting,value
CC(=O)Oc1ccccc1C(=O)O,KD,[1]; [6],> 10000 nM
CCn1cc(C(=O)O)c(=O)c2ccc(C)nc21,KD,"[1]; 36-48 h, RNA <5 nM, apparent",~ 1 µM
COc1ccc2c(c[n+](C)c3c4cc5c(cc4ccc23)OCO5)c1OC,binding,[2],yes
same,KD,"[1]; 36-48 h, RNA <5 nM, apparent",2.5 nM
C[C@H](CCC(=O)NCCS(=O)(=O)O)[C@H]1CC[C@H]2[C@@H]3CC[C@@H]4C[C@H](O)CC[C@]4(C)[C@H]3C[C@H](O)[C@]12C,KD,[1]; [7],> 100
C[C@H](CCC(=O)O)[C@H]1CC[C@H]2[C@@H]3CC[C@@H]4C[C@H](O)CC[C@]4(C)[C@H]3C[C@H](O)[C@]12C,KD,[1]; [7],> 100
C[C@H](CCC(=O)O)[C@H]1CC[C@H]2[C@@H]3[C@H](O)C[C@@H]4C[C@H](O)CC[C@]4(C)[C@H]3CC[C@]12C,KD,[1]; [7],> 100
C[n+]1cc2c3c(ccc2c2ccc4cc5c(cc4c21)OCO5)OCO3,KD,"[1]; 36-48 h, RNA <5 nM, apparent",4.2 nM
Cc1cc(N)c2ccccc2[n+]1CCCCCCCCCC[n+]1c(C)cc(N)c2ccccc21,binding,[1]; apparent,yes
Cc1cc2nc3c(=O)[nH]c(=O)nc-3n(C)c2cc1C,KD,"[1]; 36-48 h, RNA <5 nM, apparent",800 nM
Cc1cc2nc3c(=O)[nH]c(=O)nc-3n(C[C@H](O)[C@H](O)[C@H](O)CO)c2cc1C,binding,[3],no
same,binding,"[1]; riboflavin 0-10 µM, weaker than proflavine",yes
Cc1nccc2c1[nH]c1ccccc12,binding,[1]; apparent,yes
Nc1ccc2cc3ccc(N)cc3nc2c1,binding,[4],weak
same,binding,[3],no
same,binding,[5],yes
same,KD,"[1]; 36-48 h, RNA <5 nM, apparent",6.1 nM
O=C(O)/C=C/c1ccc(O)c(O)c1,KD,[1]; [6],> 10000 nM
O=C(O)/C=C/c1ccccc1,KD,[1]; [6],> 10000 nM
